In PubChem BioAssay AID328 (DTP/NCI, 2004):
Several values for one entry are separate records, joined by “and”; a condition that tells them apart may be missing. Equal entries are not always repeated. Inconclusive results and toxic doses are left out. How the source made its calls: active means survival T/C of 150% or more; inactive means T/C below 125% in these data.

Test system: BDF1 mice, P388 leukemia ip, median survival T/C
Test: NCI In Vivo Anticancer Drug Screen. Data for tumor model P388 Leukemia (intraperitoneal) in B6D2F1 (BDF1) mice
Details: endpoint: median survival time, higher = longer survival
Protocol: The antitumor activity of compounds was measured in mice bearing transplantable tumors. Survival or tumor size were measured and the results are expressed as the measurement made in the treated group (T) divided by the measurement made in the vehicle treated control group (C). The tumor model used in this assay is P388 Leukemia (intraperitoneal) in B6D2F1 (BDF1) mice

[1] = dose: 20.0 mg/kg/injection, schedule: Q01DX009 (ip), vehicle: saline with Tween-80
[2] = dose: 100.0 mg/kg/injection, schedule: Q01DX009 (ip), vehicle: saline with Tween-80
[3] = dose: 200.0 mg/kg/injection, schedule: Q01DX009 (ip), vehicle: saline with Tween-80
[4] = dose: 200.0 mg/kg/injection, schedule: Q04DX003 (ip), vehicle: saline with Tween-80
[5] = dose: 100.0 mg/kg/injection, schedule: Q04DX003 (ip), vehicle: saline with Tween-80
[6] = dose: 400.0 mg/kg/injection, schedule: Q04DX003 (ip), vehicle: saline with Tween-80
[7] = dose: 100.0 mg/kg/injection, schedule: Q04DX003 (ip), vehicle: Klucel (hydroxypropylcellulose) (HPC)
[8] = dose: 200.0 mg/kg/injection, schedule: Q04DX003 (ip), vehicle: Klucel (hydroxypropylcellulose) (HPC)
[9] = dose: 10.0 mg/kg/injection, schedule: Q01DX009 (ip), vehicle: saline with Tween-80
[10] = dose: 50.0 mg/kg/injection, schedule: Q04DX003 (ip), vehicle: saline
[11] = dose: 50.0 mg/kg/injection, schedule: Q01DX009 (ip), vehicle: saline
[12] = dose: 50.0 mg/kg/injection, schedule: Q01DX009 (ip), vehicle: saline with Tween-80

Measured: T/C

O=NN(CCCl)C(=O)NC1CCC(NC(=O)N(CCCl)N=O)CC1 (centres undefined)
active: dose: 11.0 mg/kg/injection, schedule: Q04DX003 (ip), vehicle: saline with Tween-80 229 % of control | dose: 13.0 mg/kg/injection, schedule: Q01DX009 (ip), vehicle: saline with Tween-80 187 % of control | [1] 250 % of control and 272 % of control | dose: 22.0 mg/kg/injection, schedule: Q04DX003 (ip), vehicle: saline with Tween-80 209 % of control and 220 % of control | dose: 30.0 mg/kg/injection, schedule: Q01DX009 (ip), vehicle: saline with Tween-80 272 % of control | dose: 44.0 mg/kg/injection, schedule: Q01DX009 (ip), vehicle: saline with Tween-80 272 % of control | dose: 44.0 mg/kg/injection, schedule: Q04DX003 (ip), vehicle: saline with Tween-80 272 % of control | dose: 66.0 mg/kg/injection, schedule: Q01DX009 (ip), vehicle: saline with Tween-80 240 % of control and 272 % of control | dose: 88.0 mg/kg/injection, schedule: Q04DX003 (ip), vehicle: saline with Tween-80 272 % of control and 300 % of control | [2] 224 % of control and 192 % of control | dose: 133.0 mg/kg/injection, schedule: Q04DX003 (ip), vehicle: saline with Tween-80 300 % of control | dose: 150.0 mg/kg/injection, schedule: Q01DX009 (ip), vehicle: saline with Tween-80 176 % of control | [4] 300 % of control | dose: 300.0 mg/kg/injection, schedule: Q04DX003 (ip), vehicle: saline with Tween-80 210 % of control
inactive: [3] 115 % of control

C=CCOC(=O)c1ccco1
inactive: dose: 6.25 mg/kg/injection, schedule: Q01DX009 (ip), vehicle: Klucel (hydroxypropylcellulose) (HPC) 116 % of control | dose: 12.5 mg/kg/injection, schedule: Q01DX009 (ip), vehicle: Klucel (hydroxypropylcellulose) (HPC) 108 % of control | dose: 25.0 mg/kg/injection, schedule: Q01DX009 (ip), vehicle: Klucel (hydroxypropylcellulose) (HPC) 108 % of control | dose: 50.0 mg/kg/injection, schedule: Q01DX009 (ip), vehicle: Klucel (hydroxypropylcellulose) (HPC) 100 % of control

Cn1c2ccccc2c2c3c(ccc21)C(=O)C=CC3=O
inactive: [5] 113 % of control | [4] 102 % of control | [6] 121 % of control

Cc1ccc(N=Cc2ccccc2)cc1
inactive: dose: 100.0 mg/kg/injection, schedule: Q01DX009 (ip), vehicle: Klucel (hydroxypropylcellulose) (HPC) 95 % of control | [7] 100 % of control | dose: 200.0 mg/kg/injection, schedule: Q01DX009 (ip), vehicle: Klucel (hydroxypropylcellulose) (HPC) 100 % of control | [8] 108 % of control | dose: 400.0 mg/kg/injection, schedule: Q01DX009 (ip), vehicle: Klucel (hydroxypropylcellulose) (HPC) 90 % of control | dose: 400.0 mg/kg/injection, schedule: Q04DX003 (ip), vehicle: Klucel (hydroxypropylcellulose) (HPC) 108 % of control

C(/C=C\C=C/Nc1ccccc1)=Nc1ccccc1
inactive: [9] 100 % of control | [1] 91 % of control | dose: 40.0 mg/kg/injection, schedule: Q01DX009 (ip), vehicle: saline with Tween-80 89 % of control

Nc1ccc(O)cc1
inactive: dose: 264.0 mg/kg/injection, schedule: Q01DX009 (ip), vehicle: saline sonified 109 % of control | dose: 400.0 mg/kg/injection, schedule: Q01DX009 (ip), vehicle: saline sonified 90 % of control

CCCN(CCC)CC(C)O (centres undefined)
inactive: [10] 109 % of control | dose: 100.0 mg/kg/injection, schedule: Q04DX003 (ip), vehicle: saline 100 % of control | dose: 200.0 mg/kg/injection, schedule: Q04DX003 (ip), vehicle: saline 95 % of control

Nc1cc(C(=O)Nc2ccc(CCNC3=NCCN3)cc2)ccc1C(=O)Nc1ccc(CCNC2=NCCN2)cc1
active: dose: 6.0 mg/kg/injection, schedule: Q01DX009 (ip), vehicle: saline with Tween-80 157 % of control | dose: 6.7 mg/kg/injection, schedule: Q01DX009 (ip), vehicle: saline with Tween-80 157 % of control | [9] 192 % of control and 215 % of control | dose: 15.0 mg/kg/injection, schedule: Q01DX009 (ip), vehicle: saline with Tween-80 230 % of control | dose: 18.0 mg/kg/injection, schedule: Q04DX003 (ip), vehicle: saline with Tween-80 150 % of control and 163 % of control | [1] 230 % of control | dose: 20.0 mg/kg/injection, schedule: Q04DX003 (ip), vehicle: saline with Tween-80 163 % of control | dose: 26.0 mg/kg/injection, schedule: Q04DX003 (ip), vehicle: saline with Tween-80 150 % of control and 177 % of control | dose: 40.0 mg/kg/injection, schedule: Q04DX003 (ip), vehicle: saline with Tween-80 250 % of control and 200 % of control | dose: 60.0 mg/kg/injection, schedule: Q04DX003 (ip), vehicle: saline with Tween-80 162 % of control
inactive: dose: 2.6 mg/kg/injection, schedule: Q01DX009 (ip), vehicle: saline with Tween-80 123 % of control | dose: 5.0 mg/kg/injection, schedule: Q04DX003 (ip), vehicle: saline with Tween-80 109 % of control and 113 % of control | dose: 8.0 mg/kg/injection, schedule: Q04DX003 (ip), vehicle: saline with Tween-80 118 % of control | dose: 10.0 mg/kg/injection, schedule: Q04DX003 (ip), vehicle: saline with Tween-80 109 % of control | dose: 12.0 mg/kg/injection, schedule: Q04DX003 (ip), vehicle: saline with Tween-80 118 % of control

COC(=O)N1CCC2OC2C1 (centres undefined)
inactive: [11] 99 % of control | dose: 100.0 mg/kg/injection, schedule: Q01DX009 (ip), vehicle: saline 107 % of control | dose: 200.0 mg/kg/injection, schedule: Q01DX009 (ip), vehicle: saline 100 % of control

CC(C(=O)c1cccs1)C(O)(C(F)(F)F)C(F)(F)F (centres undefined)
inactive: [7] 91 % of control | [8] 91 % of control

O=C(Nc1cccc(C(F)(F)F)c1)Nc1ccc(Oc2ccc(Cl)cc2)cc1S(=O)(=O)O
inactive: dose: 50.0 mg/kg/injection, schedule: Q04DX003 (ip), vehicle: saline sonified 104 % of control | dose: 100.0 mg/kg/injection, schedule: Q04DX003 (ip), vehicle: saline sonified 100 % of control

Nc1nc2c(ncn2C2OC(CO)C(O)C2N)c(=O)[nH]1 (centres undefined)
inactive: dose: 3.12 mg/kg/injection, schedule: Q01DX009 (ip), vehicle: saline 111 % of control | dose: 6.25 mg/kg/injection, schedule: Q01DX009 (ip), vehicle: saline 111 % of control and 124 % of control | dose: 12.5 mg/kg/injection, schedule: Q01DX009 (ip), vehicle: saline 102 % of control and 117 % of control | dose: 25.0 mg/kg/injection, schedule: Q01DX009 (ip), vehicle: saline 93 % of control and 111 % of control | [11] 108 % of control | [5] 109 % of control | [6] 100 % of control

CCC(=O)O[C@H]1CC[C@H]2[C@@H]3C[C@H](C)C4=CC(=O)C=C[C@]4(C)[C@H]3C(=O)C[C@]12C
inactive: [2] 100 % of control | [3] 91 % of control | dose: 400.0 mg/kg/injection, schedule: Q01DX009 (ip), vehicle: saline with Tween-80 95 % of control

O=C(c1cc(C(F)(F)F)cc(C(F)(F)F)c1)N1CC1
inactive: dose: 3.12 mg/kg/injection, schedule: Q01DX009 (ip), vehicle: water 100 % of control | dose: 6.25 mg/kg/injection, schedule: Q01DX009 (ip), vehicle: water 105 % of control | dose: 12.5 mg/kg/injection, schedule: Q01DX009 (ip), vehicle: water 114 % of control | dose: 25.0 mg/kg/injection, schedule: Q01DX009 (ip), vehicle: water 100 % of control | dose: 50.0 mg/kg/injection, schedule: Q01DX009 (ip), vehicle: water 110 % of control

COc1ccc(NCCN(C)C)c2c(=O)c3ccccc3sc12
inactive: [12] 97 % of control | [2] 101 % of control | [3] 108 % of control

C1CCC2(CC1)SSC1(CCCCC1)S2
inactive: dose: 50.0 mg/kg/injection, schedule: Q01DX009 (ip), vehicle: other 104 % of control | dose: 100.0 mg/kg/injection, schedule: Q01DX009 (ip), vehicle: other 100 % of control | dose: 200.0 mg/kg/injection, schedule: Q01DX009 (ip), vehicle: other 95 % of control

O=c1cc(O)[nH]c(=S)[nH]1
inactive: [12] 103 % of control | [2] 99 % of control | [3] 88 % of control

C[N+](C)(C)C12CCCCCC1SC2 (centres undefined)
inactive: dose: 25.0 mg/kg/injection, schedule: Q04DX003 (ip), vehicle: saline 106 % of control | [10] 101 % of control
